Data set [1] deals with HCT 116, H1299, TRAMP C2 and HEK cell lines. Description: XTT growth inhibition assay, statements over all tested cell lines. As to conditions: for cytotoxicity throughout the study: 1-10 μM, 24 and 72 h; for IC50 values: tested cell lines including HEK. The class given is cell-based, human. Here is the method:
(§1) The cytotoxicity of the peptide-drug conjugates was determined by measuring the mitochondrial enzyme activity, using a commercial XTT assay kit. All samples contained DMSO at final concentration <0.05%. Cells were cultured in micro wells at 2-4×10^4 cells/ml and incubated for 24 h or 72 h. After the first incubation period the cultures were washed and then given fresh medium containing different concentrations of the tested substances. At the end of the second incubation, XTT reagent was added and the cells were re-incubated for additional 2-4 h. During that time the absorbencies in the wells were measured with a TECAN Infinite M200 plate reader at both 480 and 680 nm. The difference between these measurements was used for calculating the % Growth Inhibition (GI) in test wells compared to two controls: cells that were exposed to the medium and solvent, and those that were exposed to a solvent-free medium. All the tests were done in quadruplicates. Each experiment was conducted twice.
(§2) In order to compare the cytotoxic effects of the conjugates relative to the free drugs, the in vitro cytotoxic effect of the drug bioconjugates 1a-e was determined on SSTR2 overexpressed HCT 116 human colorectal carcinoma, H1299 human non-small cell lung carcinoma and TRAMP C2 human prostate cancer cell lines. The SSTR2 low-expressed HEK-293 (Human Embryonic Kidney 293) cell line was used as a negative control. The study was elaborated over a concentration range of 1-10 μM.
FIGS. 13A-13D present the results of the XTT growth inhibition assay conducted for conjugates 1a-e. Growth inhibition effect of drug-conjugates versus free drugs was studied on three cell lines with an over-expression of SSTR2 (FIG. 13A. HCT 116; FIG. 13B. H1299; FIG. 13C. TRAMP C2) against the SSTR2 low expression cell line (FIG. 13D) HEK as negative control. All the cell lines were seeded and allowed to adhere in the wells, after which they were treated with the different compounds in increasing concentrations for 24 and 72 hr. After the treatment, growth inhibition was measured using the XTT assay: The culture medium was replaced by a new one, and then the XTT reagent was added. The wells were incubated for 2-4 hrs. after which the optical density (OD) was measured at 480 and 680 nm. Percentage of growth inhibition for each compound was calculated by comparison of the treated culture versus a control culture (free of any compound). The result shown for each concentration point represents the mean±standard error calculated from two different experiments. In each experiment the compounds were tested in quadruplicates.
A general note: Formazan colour is commonly taken as a measure of viable cells.

In data set [2] the test system is H1299 human non-small cell lung carcinoma cells. Description: XTT growth inhibition assay, H1299. As to conditions: 10 μM, incubation of 72 h. The class given is cell-based. Here is the method: as §1, §2
FIGS. 13A-13D present the results of the XTT growth inhibition assay conducted for conjugates 1a-e. […] After the treatment, growth inhibition was measured using the XTT assay: The culture medium was replaced by a new one, and then the XTT reagent was added. The wells were incubated for 2-4 hrs. after which the optical density (OD) was measured at 480 and 680 nm. Percentage of growth inhibition for each compound was calculated by comparison of the treated culture versus a control culture (free of any compound). The result shown for each concentration point represents the mean±standard error calculated from two different experiments. […]

A short description of data set [3]: Bio-stability and drug release of conjugates 1a-e in murine liver homogenate (LH). The class given is in vitro ADME, mouse. As to conditions: for half-life: mouse, tissue homogenate, read-out: degradation t1/2 in liver homogenate. Here is the method:
Preparation of liver homogenate: Mice were sacrificed by CO2 inhalation euthanasia. The livers were removed, minced, washed three times in cold PBS buffer and homogenized in Tris-HCl buffer, pH 7.4 (wt/3 vol.) by dozen strokes in a Potter-Elvehjem glass tissue grinder. The tissue homogenate was centrifuged at 4° C., 14000 rpm, 20 min. The supernatant was carefully collected (liver homogenate) and used immediately or else stored in liquid nitrogen.
Incubation procedure: Incubations were conducted in a 37° C. incubator with 2 ml homogenate (equivalent to 6 mg total protein of mouse liver homogenate) per incubation tube. The samples were prepared by adding 50 μl of stock solution to the homogenate (homogenate mixture) at the beginning of the incubation period. Aliquots of the homogenate mixture were removed after 10, 30, 60, 90, 120 and 180 min and then immediately quenched with 2.5 volumes of ethanol. The samples were centrifuged at 14000 rpm for 15 min. Supernatants were collected, filtered and analyzed by LC-MS.
FIGS. 12A-12E present the results of the bio-stability and drug release profiles assays conducted for conjugates 1a-e in LH. […] Stock solutions were prepared by dissolving 5 mg of the measured conjugate in 0.5 ml DMSO. 50 μl of the stock solution were diluted with 2 ml of fresh mouse liver homogenate and then the mixture was incubated at 37° C. Aliquots were collected at 10, 30, 60, 90 and 120 min, mixed with 2.5 volumes of ethanol and centrifuged (14,000 rpm, 15 min). The supernatants were collected, filtered and analyzed by LC-MS

A short description of data set [4]: Chemo-stability and drug release of conjugates 1a-e in buffers at pH 2, 5 and 7.4 (LC-MS). The data set is classed as physicochemical. As to conditions: for half-life at 0.4 mg/ml: buffer. Here is the method:
Incubation procedure: Aqueous stability was determined at pH 2.0 (phosphate buffer), 5.0 (citrate buffer) and 7.4 (PBS buffer). 100 μl of the stock solutions were diluted to 2.5 ml with the desired buffer and then incubated at 37° C. During the incubation period (up to 200 hrs.), aliquots were removed at different time intervals, filtered and analyzed by LC-MS.
Chemo-stability. The chemo-stability tests of the conjugates were performed at three different pH values; a physiological pH of 7.4, the slightly acidic pH 5, mimicking the microenvironment in tumors, and the more acidic pH 2.
FIGS. 11A-11J present the results of the chemo-stability and drug release profiles assays, conducted for conjugates 1a-e at pH 2, 5 and 7.4. Degradation of 1a (FIG. 11A), 1b (FIG. 11C), 1c (FIG. 11E), 1d (FIG. 11G), 1e FIG. 11 (FIG. 11I), and the release of the corresponding drugs: CLB (FIG. 11B), CPT (FIG. 11D), AM (FIG. 11F), ABT-751 (FIG. 11H), and COMB (FIG. 11J). Stock solutions were prepared by dissolving 5 mg of the measured conjugate in 0.5 ml DMSO. 100 μl of the stock solution were diluted to 2.5 ml with the relevant buffer and then incubated at 37° C. Along the incubation period, aliquots were taken at the desired time points and analyzed by LC-MS.

Data set [5] can be described thus: Bio-stability of 9a in murine liver homogenate (LH). The data set is classed as in vitro ADME, mouse. Here is the method:
Preparation of the LH and assay: Mice were sacrificed by CO2 inhalation euthanasia. The livers were removed, minced, washed three times in cold PBS buffer and homogenized in Tris-HCl, pH 7.4 buffer (wt/3 vol.) by dozen strokes in a Potter-Elvehjem glass tissue grinder. The tissue homogenate was centrifuged at 4° C., 14000 rpm, 20 min. The supernatant was carefully collected (LH) and used immediately or else stored in liquid nitrogen. The concentration of protein was measured using the BCA protein assay with bovine serum albumin as a standard.
Assay incubation procedure: Incubations were conducted in an incubator oven set at 37° C. Each incubation tube contained 2 mL homogenate samples (equivalent to 6 mg total protein of mouse LH). The samples were prepared by adding 50 μL of stock solution to the LH at the beginning of the incubation period. Aliquots (100 μL) of the LH mixture were removed after 10, 30, 60, 90, 120, and 180 min. immediately quenched with 2.5 volumes of ethanol, and centrifuged at 14000 rpm for 15 min. The supernatants were collected, filtered and analyzed by LC-MS.
In order to get a biologically relevant picture of the release sequence of the different drugs, the bio-stability of 9a in murine liver homogenate (LH) was studied. Examination of the degradation rate of 9a, accompanied by cleavage of free drugs, was carried out following the LC-MS trace at different time intervals using premade authentic samples as reference signals.

Data set [6] in a line: Chemo-stability and drug release of 9a and CLB in buffers at pH 2, 5 and 7.4 (LC-MS). The class given is physicochemical. Here is the method:
Stock solutions chemo-stability studies were prepared by dissolving 5 mg of the tested compound in 5000 μl of DMSO.
Incubation procedure: Aqueous stability was determined at pH 2, 5 and 7.4. Aliquots (100 μl) of stock solution were diluted to a total of 2.5 mL with the desired buffer and then incubated at 37° C. During the incubation period (up to 160 h) 250 μL portions were drawn at different time intervals, filtered and analyzed by LC-MS.
Peptidyl delivery systems loaded with anticancer drugs are expected to reach their site of action with minimal degradation. The PDS should be stable enough to be absorbed by cancer cells and only then deliver its toxic cargo. Chemo-stability and bio-stability studies may give us a background check for the endurance of our compact peptidyl DDS under the different conditions it is expected to encounter in a potential animal test. To that end, samples of 9a were incubated at pH 2, mimicking stomach conditions, at pH 5 mimicking the microenvironment in tumors, and at physiological pH 7.4, all at 37° C. Aliquots from the stock solutions were extracted at different time intervals and analyzed by LC-MS following the decrease in concentration of 9a (i.e., chemical degradation) and the formation of the dihydroxy derivative 11. In addition, the direct release of the different drugs was also followed based on the increase in the concentration of CLB, AZA and CAMP over time. In this analysis samples of 9a, 11, CLB, AZA and CAMP were used as references. Overall, the HPLC trace presents a very complex mixture of metabolites which could not be exhaustively characterized. Scheme 9 below presented the molecular structure 11.

As to `CC[C@@]1(OC(=O)NCCCC(=O)N[C@H](Cc2ccccc2)C(=O)N[C@H]2CSSCCN(CC(N)=O)C(=O)[C@H](Cc3ccccc3)NC(=O)[C@H]([C@@H](C)O)NC(=O)[C@H](CCCCN)NC(=O)[C@@H](Cc3c[nH]c4ccccc34)NC(=O)[C@H](Cc3c[nH]c4ccccc34)NC(=O)[C@H](Cc3ccccc3)NC2=O)C(=O)OCc2c1cc1n(c2=O)Cc2cc3ccccc3nc2-1` [conjugate 1b], in data set [1], the “cytotoxicity throughout the study” value is recorded as “targeted but cell selective cytotoxicity”. The “cytotoxic effect on H1299” value in data set [2] was “most active”. Further, the half-life in data set [3] (pH 7.4, 37° C.) is 37 min.
In the case of `CN(C)CCN1C(=O)c2cccc3cc(N)cc(c23)C1=O` [amonafide, reference compound], the “stability of free drug” value in data set [4] (acidic pH 2) is recorded as “relatively low stability”. The “cytotoxicity throughout the study” value in data set [1] was “poorly active”.
For the molecule `COc1ccc(S(=O)(=O)Nc2cccnc2Nc2ccc(O)cc2)cc1` [ABT-751, reference compound], the “degradation of free drug” value in data set [4] (buffers, 37° C.) is recorded as “certain degradation behavior”. Besides, the IC50 values entry in data set [1] is on record as “low μM range”. Moreover, the “cytotoxic effect on H1299” value in data set [2] is “considerable cytotoxic effect”. Further, the “stability of free drug in liver homogenate” value in data set [3] (measured time period) is listed as “rapid degradation”.
With `COc1ccc(/C=C\c2cc(OC)c(OC)c(OC)c2)cc1O` [COMB, combretastatin A4], the IC50 values entry in data set [1] is “low μM range”.
In the case of `COc1cc([C@@H]2c3[nH]c4ccccc4c3C[C@H]3COC(=O)N32)cc(OC)c1OC(=O)N[C@@H](C)C(=O)O` [compound 12], the “time the carbamate link remains intact in LH” value in data set [5] was “at least 120 min”.
Regarding `CC[C@]1(OC(=O)NCCCC[C@H](NC(=O)CCCc2ccc(N(CCO)CCO)cc2)C(=O)NCCCC[C@H](NC(=O)Oc2c(OC)cc([C@H]3c4[nH]c5ccccc5c4CC4COC(=O)N43)cc2OC)C(=O)O)C(=O)OCc2c1cc1n(c2=O)Cc2cc3ccccc3nc2-1` (stereo partly drawn) [compound 11], in data set [6] (all three pH cases), the “time after which no traces of 11 are left” value is recorded as 40 h and the “time at which formation of 11 from 9a reaches its maximum” value is 5 h.
Take `C[C@@H](O)[C@@H]1NC(=O)[C@H](CCCCN)NC(=O)[C@@H](Cc2c[nH]c3ccccc23)NC(=O)[C@H](Cc2c[nH]c3ccccc23)NC(=O)[C@H](Cc2ccccc2)NC(=O)[C@@H](NC(=O)[C@@H](Cc2ccccc2)NC(=O)CCCNC(=O)CCCC(=O)Nc2cc3c4c(cccc4c2)C(=O)N(CCN(C)C)C3=O)CSSCCN(CC(N)=O)C(=O)[C@H](Cc2ccccc2)NC1=O` [conjugate 1c]: the half-life at 0.4 mg/ml in data set [4] (pH 2) is 2880 min; in data set [4] (pH 5), 1680 min; in data set [4] (pH 7.4), 6180 min.
Consider `O=C(O)CCCc1ccc(N(CCCl)CCCl)cc1` [CLB, Chlorambucil, reference compound], for which, in data set [1], the “cytotoxicity throughout the study” value is reported as “poorly active”. Further, in data set [6] (all tested pH values (2, 5, 7.4), 37° C.), the “degradation of pure CLB” value was “considerable degradation”. Besides, in data set [6] (pH 5), the “relative stability of CLB” value is reported as “least stable”.
Turning to `C[C@@H](O)[C@@H]1NC(=O)[C@H](CCCCN)NC(=O)[C@@H](Cc2c[nH]c3ccccc23)NC(=O)[C@H](Cc2c[nH]c3ccccc23)NC(=O)[C@H](Cc2ccccc2)NC(=O)[C@@H](NC(=O)[C@@H](Cc2ccccc2)NC(=O)CCCNC(=O)CCCc2ccc(N(CCCl)CCCl)cc2)CSSCCN(CC(N)=O)C(=O)[C@H](Cc2ccccc2)NC1=O` [conjugate 1a], in data set [4] (all tested pH values (pH 2, 5, 7.4), 37° C.), the degradation of conjugate result was “considerable degradation”. For the same molecule, the “CLB release from conjugate” value in data set [4] (pH 2, 5 and 7.4, 37° C.) was “observed only at acidic pH 2”. The half-life in data set [4] (pH 2, 37° C., read-out: CLB release t1/2 (converted)) was 2.12 days; in data set [3] (37° C.), 57 min. Further, in data set [1], the “cytotoxicity throughout the study” value is given as “poorly active”.

The values above are taken from patent US11311625B2, “Peptide-based multiple-drug delivery vehicle” (priority 2015, dated 2022).
